Results reported in US20260103455A1, “ULK3 INHIBITORS AND USES THEREOF” (H. LEE MOFFITT CANCER CENTER AND RESEARCH INSTITUTE, INC., priority 2022, published 2026).
pIC50: −log10 of the molar value.

Legend:
[1] = molecular target: T1, JAK2 (Homo sapiens, UniProt O60674); test: IC50 for JAK2, Reaction Biology kinase assay (32P Hotspot assay); type: biochemical
[2] = molecular target: T1, JAK2; test: DSF (JAK2) thermal shift; type: binding
[3] = molecular target: T2, ULK3 (Homo sapiens, UniProt Q6PHR2); test: DSF (ULK3) thermal shift; type: binding
T2 sequence (Q6PHR2 1-472): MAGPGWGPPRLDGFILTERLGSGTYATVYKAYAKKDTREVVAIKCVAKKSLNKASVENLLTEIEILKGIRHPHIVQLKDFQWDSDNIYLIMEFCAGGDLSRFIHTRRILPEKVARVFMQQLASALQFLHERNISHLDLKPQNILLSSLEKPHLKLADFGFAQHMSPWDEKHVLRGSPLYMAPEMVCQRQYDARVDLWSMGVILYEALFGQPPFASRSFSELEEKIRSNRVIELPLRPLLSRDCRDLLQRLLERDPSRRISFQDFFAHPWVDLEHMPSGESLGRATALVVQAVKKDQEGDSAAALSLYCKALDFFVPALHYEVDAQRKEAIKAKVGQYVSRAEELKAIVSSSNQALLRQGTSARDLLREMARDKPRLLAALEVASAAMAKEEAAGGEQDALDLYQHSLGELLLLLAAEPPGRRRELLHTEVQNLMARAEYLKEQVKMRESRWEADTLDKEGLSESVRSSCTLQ

T1 sequence (O60674 whole entry): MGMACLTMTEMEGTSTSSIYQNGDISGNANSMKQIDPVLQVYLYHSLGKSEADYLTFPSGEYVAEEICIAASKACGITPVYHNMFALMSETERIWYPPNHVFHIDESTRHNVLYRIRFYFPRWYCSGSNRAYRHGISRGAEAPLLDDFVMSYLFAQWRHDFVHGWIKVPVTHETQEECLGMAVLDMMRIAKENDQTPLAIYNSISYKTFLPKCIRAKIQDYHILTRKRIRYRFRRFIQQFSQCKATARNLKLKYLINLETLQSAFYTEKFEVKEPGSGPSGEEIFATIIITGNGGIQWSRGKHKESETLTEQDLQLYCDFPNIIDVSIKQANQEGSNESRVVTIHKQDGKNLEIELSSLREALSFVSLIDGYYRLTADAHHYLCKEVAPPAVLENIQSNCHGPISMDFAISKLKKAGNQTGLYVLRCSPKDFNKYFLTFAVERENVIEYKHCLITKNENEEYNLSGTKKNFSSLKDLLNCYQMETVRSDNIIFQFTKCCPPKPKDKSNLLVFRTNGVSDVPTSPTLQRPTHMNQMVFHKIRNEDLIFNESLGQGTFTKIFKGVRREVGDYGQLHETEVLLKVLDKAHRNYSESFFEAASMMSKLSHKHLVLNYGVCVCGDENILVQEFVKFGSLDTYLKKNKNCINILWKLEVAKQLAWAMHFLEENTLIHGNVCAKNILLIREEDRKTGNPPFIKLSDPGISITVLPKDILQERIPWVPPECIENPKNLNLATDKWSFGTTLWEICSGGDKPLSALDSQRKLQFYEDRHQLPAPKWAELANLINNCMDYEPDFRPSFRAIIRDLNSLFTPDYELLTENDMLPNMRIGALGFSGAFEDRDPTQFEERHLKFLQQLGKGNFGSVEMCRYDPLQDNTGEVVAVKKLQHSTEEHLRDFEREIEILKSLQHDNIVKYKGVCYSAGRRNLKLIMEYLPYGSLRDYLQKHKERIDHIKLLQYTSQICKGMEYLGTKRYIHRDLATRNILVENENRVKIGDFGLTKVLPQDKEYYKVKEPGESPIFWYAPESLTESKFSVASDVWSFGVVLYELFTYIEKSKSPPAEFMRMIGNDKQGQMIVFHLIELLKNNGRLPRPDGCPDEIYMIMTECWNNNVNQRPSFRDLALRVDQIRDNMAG

Molecule | pIC50 [1] | DSF (JAK2) ΔTm (° C.) [2] [°C] | DSF (ULK3) ΔTm (° C.) [3] [°C]
O=C(c1ccc(-c2ccnc(Nc3ccc(N4CCOCC4)cc3)n2)cc1)N1CCC[C@H]1C(F)(F)F [BH1-159, (S)-(4-(2-((4-Morpholinophenyl)amino)pyrimidin-4-yl)phenyl) (2-(trifluoromethyl)pyrrolidin-1-yl) methanone] | 7.13 | 1.1 | 
C[C@H](NC(=O)c1ccc(-c2ccnc(Nc3ccc(N4CCOCC4)cc3)n2)cc1)C(F)(F)F [BH1-152, (S)-4-(2-((4-Morpholinophenyl)amino)pyrimidin-4-yl)-N-(1,1,1-trifluoropropan-2-yl)benzamide] | 9.13 | 0.7 | 12.5
N#CCNC(=O)c1ccc(-c2nc(Nc3ccc(N4CCOCC4)cc3)nc3[nH]ccc23)cc1 [BL4-139] | > 9.29 |  | 15.0
N#CCNC(=O)c1ccc(-c2nc(Nc3ccc(N4CCOCC4=O)cc3)ncc2F)cc1 [GM1-036BA2, N-(Cyanomethyl)-4-(5-fluoro-2-((4-(3-oxomorpholino)phenyl)amino)pyrimidin-4-yl)benzamide] |  | 1.1 | 8.7
C[C@@H](NC(=O)c1ccc(-c2ccnc(Nc3ccc(N4CCOCC4)cc3)n2)cc1)C(F)(F)F [BH1-151, (R)-4-(2-((4-Morpholinophenyl)amino)pyrimidin-4-yl)-N-(1,1,1-trifluoropropan-2-yl)benzamide] | 8.95 | 0.4 | 14.0
2-Fluoro-N-methyl-4-((4-(4-((2,2,2-trifluoroethyl)carbamoyl)phenyl)pyrimidin-2-yl) amino)benzamide [BH1-106] |  | 0.54 | 9.9
O=C(NCC(F)(F)F)c1ccc(-c2nc(Nc3ccc(N4CCOCC4)cc3)nc3[nH]ccc23)cc1 [RF1-046, 4-(2-((4-Morpholinophenyl)amino)-7H-pyrrolo[2,3-d]pyrimidin-4-yl)-N-(2,2,2-trifluoro-ethyl)benzamide] | 9.13 |  | 
Cc1cnc(Nc2ccc(N3CCOCC3=O)cc2)nc1-c1ccc(C(=O)NCC#N)cc1 [GM1-030, N-(Cyanomethyl)-4-(5-methyl-2-((4-(3-oxomorpholino)phenyl)amino)pyrimidin-4-yl)benzamide] |  | 5.5 | 8.1

Next, values leading:

pIC50 [1] | DSF (JAK2) ΔTm (° C.) [2] [°C] | DSF (ULK3) ΔTm (° C.) [3] [°C] | Molecule
7.89 | 1.0 |  | CC(C)(C)[C@@H](CO)NC(=O)c1ccc(-c2ccnc(Nc3ccc(N4CCOCC4)cc3)n2)cc1 [BH1-062, (S)—N-(1-Hydroxy-3,3-dimethylbutan-2-yl)-4-(2-((4-morpholinophenyl)amino)pyrimidin-4-yl)benzamide]
 | 0.1 | 10.0 | COc1cc(N2CCOCC2)ccc1Nc1nccc(-c2ccc(C(=O)NCC(F)(F)F)cc2)n1 [BH1-132, 4-(2-((2-Methoxy-4-morpholinophenyl)amino)pyrimidin-4-yl)-N-(2,2,2-trifluoroethyl)benzamide]
8.07 | 1.4 |  | O=C(c1ccc(-c2ccnc(Nc3ccc(N4CCOCC4)cc3)n2)cc1)N1CCC[C@@H]1C(F)(F)F [BH1-160, (R)-(4-(2-((4-Morpholinophenyl)amino)pyrimidin-4-yl)phenyl) (2-(trifluoromethyl)pyrrolidin-1-yl) methanone]
 | 0.05 | 6.9 | COC(=O)c1ccc(Nc2nccc(-c3ccc(C(=O)NCC(F)(F)F)cc3)n2)cc1F [BH1-104, Methyl 2-fluoro-4-((4-(4-((2,2,2-trifluoroethyl)carbamoyl)phenyl)pyrimidin-2-yl)amino)benzoate]
8.90 | 2.1 | 15.0 | Cc1cnc(Nc2ccc(N3CCOCC3)cc2)nc1Nc1ccc(Cl)c(NS(=O)(=O)C(C)(C)C)c1 [BH1-150]
